Measurements reported in US20170319501A1, “Oral Pharmaceutical Dosage Forms” (DURECT CORPORATION, priority 2007, published 2017).

Key:
[1] = Thermal gravimetric analysis of oxycodone base and oxycodone HCl; format: physicochemical
Procedure: Initially, thermal gravimetric analysis was used to measure the weight loss of oxycodone base and oxycodone HC1 in order to determine the correct temperature to conduct the volatilization study. Oxycodone base was subjected to increasing temperature conditions (30 to 350° C.) at a ramping rate of 20° C./min. Vaporization occurred above 200° C. and was complete at 310° C. Vaporization of oxycodone HCl (28 to 400° C.) was analogous to that of the free base up to approximately 300° C. after which significant decomposition of the salt form occurred. Based on these observations, a temperature of 280° C. was selected for this study. This temperature is above the melting point of oxycodone (to ensure adequate drug vaporization) and below 300° C. (to limit decomposition of the salt form). A maximum exposure time of 10 minutes was selected based on pre-test observations that little additional oxycodone was recovered beyond that time point.

[2] = Solubility of the active agent in Triacetin and in water (stated); format: physicochemical
[3] = Preliminary in vitro volatilization test on hot plate (Example 4a); format: physicochemical; settings: 40 mg sample; for Oxycodone Collected (in mg), total: total of 4 time points
Description: In order to further assess the abuse-resistance performance of the dosage forms of the present invention, the following in vitro volatilization test was developed. In particular, intentional abuse of controlled release pharmaceutical dosage forms may alternatively be carried out by volatilization (smoking, or free-basing) techniques that can liberate active agent (in immediately active form) from commercially available controlled release carrier systems. Accordingly, a preliminary in vitro volatilization test was developed in order to assess: (1) whether oxycodone free base was more volatile than the salt (HCl) form; and (2) whether the abuse-resistant dosage forms produced according to the instant invention can prevent inhalation abuse through volatilization.
Each petri dish was fitted with a watch glass as a cover, and the covered test dishes were placed on a hot plate (setting 10). After 30 seconds each watch glass was replaced with a fresh watch glass, and this step was repeated three times (to obtain 4 time points). Any residue deposited on the bottom side of the test watch glasses was carefully transferred with an Alpha Swab (TX 761) into 40/60 ethanol/0.005M HCl solution, and the concentration of oxycodone solution was determined by HPLC. The observations taken during the test were as follows. […] It was noted that vaporized drug (and solvents where present) escaped during each change of the watch glass, which may be at least partially responsible for the low recovery noted in the HPLC results below. […] The HPLC results obtained in this Example 4a are provided below in Table 30.

[4] = intravenous bolus dosing, human, open literature data; cited from earlier work

Structure (SMILES) | solubility in Triacetin [2] | solubility in water [2] | Oxycodone Collected ([3]; time point 0.5 minutes) [mg] | Oxycodone Collected ([3]; time point 1.0 minutes) [mg] | Oxycodone Collected ([3]; time point 1.5 minutes) [mg] | Oxycodone Collected ([3]; time point 2.0 minutes) [mg] | Oxycodone Collected (in mg), total [3] [mg] | also measured
COc1ccc2c3c1O[C@H]1C(=O)CC[C@@]4(O)[C@@H](C2)N(C)CC[C@]314.Cl [oxycodone in salt form, oxycodone HCl] | low solubility in Triacetin | high solubility in water |  |  |  |  |  | temperature after which significant decomposition occurred ([1]; 28 to 400° C.): approximately 300 °C
COc1ccc2c3c1O[C@H]1C(=O)CC[C@@]4(O)[C@@H](C2)N(C)CC[C@]314.Cl [oxycodone API (HCl salt form)] |  |  | 1.7202 | 0.4086 | 0.1236 | 0.0270 | 2.2794 | 
C[C@H](N)Cc1ccccc1 [d-amphetamine] |  |  |  |  |  |  |  | unit impulse response parameter A [4]: 98.3±6.01; unit impulse response parameter B [4]: 28.2±0.56; unit impulse response parameter α [4]: 9.65±0.64; unit impulse response parameter β [4]: 6.31×10^−2±3.78×10^−3
COc1ccc2c3c1O[C@H]1C(=O)CC[C@@]4(O)[C@@H](C2)N(C)CC[C@]314 [oxycodone free base, oxycodone] | high solubility in Triacetin | low water solubility |  |  |  |  |  | temperature above which vaporization occurred ([1]; ramping rate 20° C./min): above 200 °C; temperature at which vaporization was complete ([1]; ramping rate 20° C./min): 310 °C
COc1ccc2c3c1O[C@H]1C(=O)CC[C@@]4(O)[C@@H](C2)N(C)CC[C@]314 [oxycodone API (free base form)] |  |  | 1.4730 | 7.2666 | 0.7356 | 0.7050 | 10.1802 | 
